Measurements taken from US20250214977A1, “STAT6 INHIBITORS AND USES THEREOF” (Kymera Therapeutics, Inc., priority 2024, published 2025).

These compounds were tested on Phosphorylation of STAT6 in human PBMC (CD19+ B cells) (assay: Phosphorylated STAT6 (pSTAT6) flow cytometry assay in human PBMC, IL-4 stimulated). Details: compound 1 hour, 1 ng/ml IL-4 for 15 minutes, read-out: STAT6 IL4 pSTAT6 assay in PBMC: Average IC50.
Format: cell-based
In short: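 Human PBMC preincubated 1 h at 37 °C with compound (9-point 1:3 series, top up to 30 μM), then stimulated with 1 ng/ml IL-4 for 15 min. After fixation, methanol permeabilization and staining, pSTAT6 quantified in CD19+ B cells by flow cytometry; four-parameter fit of inhibition.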
With `CCC(=O)N1Cc2ccccc2CC1C(=O)N1CCC=C(c2ccc3oc(C(=O)N(C)C)cc3c2)C1` (centres unmarked) [Example I-189] the IC50 was greater than 100 µM. `CC(=O)NCc1ccc(CC(=O)N2CCC=C(c3ccc4oc(C(=O)N(C)C)cc4c3)C2)cc1` [Example I-252] was tested, and the IC50 was greater than 100 µM. Compound `C[C@@H](Cn1ccnn1)C(=O)N1CCC=C(c2ccc3oc(C(=O)N(C)C)cc3c2)C1` (single isomer, unassigned) [Example I-229] has an IC50 greater than 100 µM. For `CN(C)C(=O)c1cc2ccc(C3=CCCN(C(=O)C4CC(O)C4)C3)cc2[nH]1` (centres unmarked) [Example I-28], the IC50 was 10 to 100 µM. In the case of `CC(=O)NCc1ccccc1-c1ccccc1CC(=O)N1CCC=C(c2ccc3oc(C(=O)N(C)C)cc3c2)C1` [Example I-219], the IC50 is reported as greater than 100 µM. `CN(C)C(=O)c1cc2cc(C3=CCCN(C(=O)Cc4ncccn4)C3)ccc2o1` [Example I-249] showed an IC50 greater than 100 µM. Compound `CN(C)C(=O)c1cc2ccc(C3=CCCN(C(=O)[C@@H]4C[C@H]4c4ccc(Br)cc4)C3)cc2[nH]1` [Example I-56] has an IC50 of 10 to 100 µM. `CN(C)C(=O)c1cc2ccc(C3=CCCN(C(=O)CCCn4ncc5nc(Cl)ccc54)C3)cc2[nH]1` [Example I-90] gave an IC50 of 10 to 100 µM. In the case of `CN(C)C(=O)c1cn2cc(C3=CCCN(C(=O)CCn4ccnn4)C3)ccc2n1` [Example I-241], the IC50 is reported as greater than 100 µM. `CN(C)C(=O)c1cc2cc(C3=CCCN(C(=O)Cc4ccc5ncnn5c4)C3)ccc2o1` [Example I-286] showed an IC50 greater than 100 µM. `CN(C)C(=O)c1cc2cc(C3=CCCN(C(=O)CCn4ccnn4)C3)cc(CN3CC(N)C3)c2o1` [Example I-166] gave an IC50 greater than 100 µM. Work on `CN(C)C(=O)c1ccc2c(C3=CCCN(C(=O)CCn4ccnn4)C3)c[nH]c2c1` [Example I-317] yielded an IC50 greater than 100 µM. With `CN(C)C(=O)c1cc2cc(C3=CCCN(C(=O)Cc4cccc5ccccc45)C3)ccc2o1` [Example I-294] the IC50 was greater than 100 µM. In the case of `CN(C)C(=O)c1cc2ccc(C3=CCCN(C(=O)CC(c4ccccc4)c4ccccc4)C3)cc2[nH]1` [Example I-91], the IC50 is reported as 10 to 100 µM. For `CN(C)C(=O)c1cc2cc(C3=CCCN(C(=O)CCc4cccnn4)C3)ccc2o1` [Example I-220], the IC50 was greater than 100 µM. Compound `CN(C)C(=O)c1cc2cc(C3=CCCN(C(=O)CCn4ccnc4)C3)ccc2o1` [Example I-310] has an IC50 greater than 100 µM. `CCC(=O)N1Cc2ccccc2CC1C(=O)N1CCC=C(c2ccc3oc(C(=O)N(C)C)cc3c2)C1` (centres unmarked) [Example I-188] showed an IC50 greater than 100 µM. `CN(C)C(=O)c1cc2ccc(C3=CCCN(C(=O)C(c4ccc(F)cc4)c4ccc(F)cc4)C3)cc2[nH]1` [Example I-160] was tested, and the IC50 was greater than 100 µM. `CN(C)C(=O)c1cc2cc(C3=CCCN(C(=O)Cc4cnccn4)C3)ccc2o1` [Example I-246] was tested, and the IC50 was greater than 100 µM. For `CCOC(=O)N(CC(=O)N1CCC=C(c2ccc3cc(C(=O)N(C)C)[nH]c3c2)C1)Cc1ccco1` [Example I-81], the IC50 was greater than 100 µM. Work on `CC(=O)N1CCN(c2cc(C3=CCCN(C(=O)CCn4ccnn4)C3)cc3cc(C(=O)N(C)C)oc23)CC1` [Example I-207] yielded an IC50 greater than 100 µM. `CN(C)C(=O)c1cc2ccc(C3=CCCN(C(=O)CCc4ccccn4)C3)cc2[nH]1` [Example I-212] showed an IC50 of 10 to 100 µM. Compound `CN(C)C(=O)c1cc2ccc(C3=CCCN(C(=O)C4CCN(S(C)(=O)=O)CC4)C3)cc2[nH]1` [Example I-140] has an IC50 greater than 100 µM. Compound `CN(C)C(=O)c1cc2cc(C3=CCCN(C(=O)CCc4cccnc4)C3)ccc2o1` [Example I-301] has an IC50 greater than 100 µM. In the case of `CNc1ccc(-c2cc(C3=CCCN(C(=O)CCn4ccnn4)C3)cc3[nH]c(C(=O)N(C)C)cc23)c(C)c1` [Example I-114], the IC50 is reported as 0.1 to 1 µM. In the case of `O=C(CCn1ccnn1)N1CCC=C(c2ccc3cc(C(=O)N4CCCC4)[nH]c3c2)C1` [Example I-124], the IC50 is reported as greater than 100 µM. `CN(C)C(=O)c1cc2cc(C3=CCCN(C(=O)Cc4ccc5ncccc5c4)C3)ccc2o1` [Example I-273] was tested, and the IC50 was greater than 100 µM. In the case of `CN(C)C(=O)c1cc2ccc(C3=CCCN(C(=O)C4(c5ccccc5)CCC(=O)NC4)C3)cc2[nH]1` (centres unmarked) [Example I-87], the IC50 is reported as 10 to 100 µM. `CNS(=O)(=O)c1cccc(C(=O)N2CCC=C(c3ccc4cc(C(=O)N(C)C)[nH]c4c3)C2)c1` [Example I-70] gave an IC50 greater than 100 µM.
